The assay has as its target T1, Human GO (Homo sapiens, UniProt Q9UJM8).
T1 construct: purchased Novus Biologicals NBP1-72412
T1 sequence (Q9UJM8 1-370): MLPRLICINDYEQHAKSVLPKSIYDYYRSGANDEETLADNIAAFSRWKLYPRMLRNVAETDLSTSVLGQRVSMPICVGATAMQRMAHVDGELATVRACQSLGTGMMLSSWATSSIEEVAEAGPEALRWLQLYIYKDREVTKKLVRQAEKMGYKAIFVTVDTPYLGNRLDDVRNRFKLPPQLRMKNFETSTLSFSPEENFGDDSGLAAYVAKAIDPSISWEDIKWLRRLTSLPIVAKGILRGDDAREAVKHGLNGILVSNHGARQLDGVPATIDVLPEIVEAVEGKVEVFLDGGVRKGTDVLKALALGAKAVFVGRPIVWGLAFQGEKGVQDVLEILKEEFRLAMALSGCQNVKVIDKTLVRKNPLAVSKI
The assay can be described thus: GO enzymatic assay (coupled fluorescence/HRP assay, glycolate substrate). It is filed as biochemical. The settings on record: Table 2; read-out: Range (range of IC50 values calculated from the enzymatic assays). The essentials: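 Coupled HRP/fluorescence read-out of glycolate oxidation by human GO in 50 mM potassium phosphate buffer (pH 7). Inhibitors added across a concentration range.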
Turning to `O=C(O)c1[nH]nnc1CN(Cc1ccc(OC(F)(F)F)cc1)c1ccc(Cl)cc1` [Compound 195, 4-(((4-chlorophenyl)(4-(trifluoromethoxy)benzyl)amino)methyl)-1H-1,2,3-triazole-5-carboxylic acid], the concentration for half-maximal inhibition (IC50) (in general, the concentration at which inhibition is half-maximal) was 100 to 1000 nM.
Turning to `O=C(O)c1[nH]nnc1CN(Cc1ccccc1)c1ccc(-c2ccc(OC(F)(F)F)cc2)cc1` [Compound 196, 4-((benzyl(4′-(trifluoromethoxy)-[1,1′-biphenyl]-4-yl)amino)methyl)-1H-1,2,3-triazole-5-carboxylic acid 2,2,2-trifluoroacetate], the IC50 is 100 to 1000 nM.
Regarding `O=C(O)c1[nH]nnc1C(F)(F)c1ccc(-c2ccc(Cl)cc2)c(Cl)c1` [Compound 197, 4-((2,4′-dichloro-[1,1′-biphenyl]-4-yl)difluoromethyl)-1H-1,2,3-triazole-5-carboxylic acid 2,2,2-trifluoroacetate], the IC50 is under 100 nM.
As for `O=C(O)c1[nH]nnc1C(F)(F)c1ccc(-c2ccc(OC(F)(F)F)cc2)cc1` [Compound 198, 4-(difluoro(4′-(trifluoromethoxy)-[1,1′-biphenyl]-4-yl)methyl)-1H-1,2,3-triazole-5-carboxylic acid 2,2,2-trifluoroacetate], the IC50 is under 100 nM.
Regarding `O=C(O)c1[nH]nnc1C(F)(F)c1ccc2cc(Cl)ccc2c1` [Compound 199, 4-((6-chloronaphthalen-2-yl)difluoromethyl)-1H-1,2,3-triazole-5-carboxylic acid], the IC50 was under 100 nM.
In the case of `O=C(O)c1[nH]nnc1C(F)(F)c1ccc(-c2ccc(Cl)cc2)cc1` [Compound 200, 4-((4′-chloro-[1,1′-biphenyl]-4-yl)difluoromethyl)-1H-1,2,3-triazole-5-carboxylic acid 2,2,2-trifluoroacetate], the IC50 was under 100 nM.
With `O=C(O)c1[nH]nnc1C(F)(F)c1ccc(-c2ccc(Cl)c(Cl)c2)cc1` [Compound 201, 4-((3′,4′-dichloro-[1,1′-biphenyl]-4-yl)difluoromethyl)-1H-1,2,3-triazole-5-carboxylic acid 2,2,2-trifluoroacetate], the IC50 was under 100 nM.
Regarding `O=C(O)c1[nH]nnc1-c1ccc(-c2ccc(Cl)cc2)c(OC(F)(F)F)c1` [Compound 203, 4-(4′-chloro-2-(trifluoromethoxy)-[1,1′-biphenyl]-4-yl)-1H-1,2,3-triazole-5-carboxylic acid], the IC50 was under 100 nM.
On to `CC(C)C(=O)OCOC(=O)c1[nH]nnc1-c1ccc2cc(Cl)ccc2n1` [Compound 204, (isobutyryloxy)methyl 4-(6-chloroquinolin-2-yl)-1H-1,2,3-triazole-5-carboxylate], for which the IC50 is 1000 to 10000 nM.
In the case of `CC(C)N1CCCc2cc(-c3nn[nH]c3C(=O)O)ccc21` [Compound 206, 4-(1-isopropyl-1,2,3,4-tetrahydroquinolin-6-yl)-1H-1,2,3-triazole-5-carboxylic acid 2,2,2-trifluoroacetate], the IC50 was 1000 to 10000 nM.
Next, `O=C(O)c1[nH]nnc1-c1cc(Cl)c(Cl)cn1` [Compound 207, 4-(4,5-dichloropyridin-2-yl)-1H-1,2,3-triazole-5-carboxylic acid]: 100 to 1000 nM; `O=C(O)c1[nH]nnc1-c1ccc(Cl)cn1` [Compound 208, 4-(5-chloropyridin-2-yl)-1H-1,2,3-triazole-5-carboxylic acid 2,2,2-trifluoroacetate]: 100 to 1000 nM; `CC(=O)NCCOc1ccc(-c2nn[nH]c2C(=O)O)cc1` [Compound 209, 4-(4-(2-acetamidoethoxy)phenyl)-1H-1,2,3-triazole-5-carboxylic acid]: 1000 to 10000 nM.
For `O=C(O)c1[nH]nnc1-c1cc2ccc(F)cc2cn1` [Compound 210, 4-(7-fluoroisoquinolin-3-yl)-1H-1,2,3-triazole-5-carboxylic acid 2,2,2-trifluoroacetate] the value was 100 to 1000 nM.
For the compound `O=C(O)c1[nH]nnc1-c1cc2cc(OC(F)(F)F)ccc2cn1` [Compound 211, 4-(6-(trifluoromethoxy)isoquinolin-3-yl)-1H-1,2,3-triazole-carboxylic acid], the IC50 was 1000 to 10000 nM.
Turning to `O=C(O)c1[nH]nnc1-c1ccc2c(n1)CCCC2` [Compound 212, 4-(5,6,7,8-tetrahydroquinolin-2-yl)-1H-1,2,3-triazole-5-carboxylic acid], the IC50 is 1000 to 10000 nM.
Consider `O=C(O)c1[nH]nnc1-c1cc2cc(F)ccc2cn1` [Compound 213, 4-(6-fluoroisoquinolin-3-yl)-1H-1,2,3-triazole-5-carboxylic acid 2,2,2-trifluoroacetate], for which the IC50 is 1000 to 10000 nM.
Next, `O=C(O)c1[nH]nnc1-c1cc2ccc(OC(F)(F)F)cc2cn1` [Compound 214, 4-(7-(trifluoromethoxy)isoquinolin-3-yl)-1H-1,2,3-triazole-5-carboxylic acid]: 100 to 1000 nM.
Consider `O=C(O)c1[nH]nnc1-c1cc2ccc(C(F)(F)F)cc2cn1` [Compound 215, 4-(7-(trifluoromethyl)isoquinolin-3-yl)-1H-1,2,3-triazole-5-carboxylic acid], for which the IC50 is 100 to 1000 nM.
Turning to `O=C(O)c1[nH]nnc1-c1cnc2cc(Cl)ccc2c1` [Compound 216, 4-(7-chloroquinolin-3-yl)-1H-1,2,3-triazole-5-carboxylic acid 2,2,2-trifluoroacetate], the IC50 is under 100 nM.
Next, `O=C(O)c1[nH]nnc1-c1cc(Cl)cc(OCC2CC2)c1` [Compound 217, 4-(3-chloro-5-(cyclopropylmethoxy)phenyl)-1H-1,2,3-triazole-5-carboxylic acid 2,2,2-trifluoroacetate]: under 100 nM; `O=C(O)c1[nH]nnc1-c1ccc(Cl)c(OCC2CC2)c1` [Compound 218, 4-(4-chloro-3-(cyclopropylmethoxy)phenyl)-1H-1,2,3-triazole-5-carboxylic acid]: 100 to 1000 nM.
Consider `O=C(O)c1[nH]nnc1-c1cc(OCC2CC2)ccc1Cl` [Compound 219, 4-(2-chloro-5-(cyclopropylmethoxy)phenyl)-1H-1,2,3-triazole-5-carboxylic acid], for which the IC50 is 1000 to 10000 nM.
Turning to `O=C(O)c1[nH]nnc1Oc1ccc(-c2cccc(N3CCCCC3)c2)cc1` [Compound 220, 4-((3′-(piperidin-1-yl)-[1,1′-biphenyl]-4-yl)oxy)-1H-1,2,3-triazole-5-carboxylic acid 2,2,2-trifluoroacetate], the IC50 is under 100 nM.
On to `O=C(O)c1[nH]nnc1Oc1ccc(-c2ccc(N3CCCCC3)cc2)cc1` [Compound 221, 4-((4′-(piperidin-1-yl)-[1,1′-biphenyl]-4-yl)oxy)-1H-1,2,3-triazole-5-carboxylic acid 2,2,2-trifluoroacetate], for which the IC50 is under 100 nM.
Turning to `CN1CCCc2cc(-c3ccc(Oc4nn[nH]c4C(=O)O)cc3)ccc21` [Compound 222, 4-(4-(1-methyl-1,2,3,4-tetrahydroquinolin-6-yl)phenoxy)-1H-1,2,3-triazole-5-carboxylic acid], the half-inhibitory concentration (IC50) is under 100 nM.
Next, `O=C(O)c1[nH]nnc1Oc1ccc(-c2cccc3c2CCCC3)cc1` [Compound 223, 4-(4-(5,6,7,8-tetrahydronaphthalen-1-yl)phenoxy)-1H-1,2,3-triazole-5-carboxylic acid 2,2,2-trifluoroacetate]: under 100 nM; `O=C(O)c1[nH]nnc1Oc1ccc(-c2cccc(CN3CCCCC3=O)c2)cc1` [Compound 224, 4-((3′-((2-oxopiperidin-1-yl)methyl)-[1,1′-biphenyl]-4-yl)oxy)-1H-1,2,3-triazole-5-carboxylic acid]: under 100 nM.

These data come from patent publication US11384055B2 (BIOMARIN PHARMACEUTICAL INC., priority 2017, dated 2022).
